Test results reported in US5710130A, “Antithrombotic agents” (Eli Lilly and Company, priority 1995, dated 1998).
Where a name gives a salt, the structure may show the parent alone.

Columns and labels:
[1] = system: human plasma; assay: Human plasma anticoagulation, prothrombin time (PT); assay type: biochemical; details: concentration required to double PT, linear extrapolation
Procedure: Dog plasma and rat plasma is obtained from conscious mixed-breed hounds (either sex, Hazelton-LRE, Kalamazoo, Mich., U.S.A.) or from anesthetized male Sprague-Dawley rats (Harlan Sprague-Dawley, Inc., Indianapolis, Ind., U.S.A.) by venipuncture into 3.8 percent citrate. Fibrinogen is prepared from in-date ACD human blood as the fraction I-2 according to previous procedures and specifications. […] Human fibrinogen is also purchased as 98 percent pure/plasmin free from American Diagnostica, Greenwich, Conn. Coagulation reagents ACTIN, Thromboplastin, and Human plasma are from Baxter Healthcare Corp., Dade Division, Miami, Fla. Bovine thrombin from Parke-Davis ([…], Mich.) is used for coagulation assays in plasma.
Coagulation assay procedures are as previously described. […] A CoAScreener coagulation instrument (American LABor, Inc.) is used for all coagulation assay measurements. The prothrombin time (PT) is measured by adding 0.05 mL saline and 0.05 mL Thromboplastin-C reagent to 0.05 mL test plasma. The activated partial thromboplastin time (APTT) is measured by incubation of 0.05 mL test plasma with 0.05 mL Actin reagent for 120 seconds followed by 0.05 mL CaCl2 (0.02M). The thrombin time (TT) is measured by adding 0.05 mL saline and 0.05 mL thrombin (10 NIH units/mL) to 0.05 mL test plasma. The compounds of Formula I are added to human or animal plasma over a wide range of concentrations to determine prolongation effects on the APTT, PT, and TT assays. Linear extrapolations are performed to estimate the concentrations required to double the clotting time for each assay.

[2] = system: human plasma; assay: Human plasma anticoagulation, thrombin time (TT); assay type: biochemical; details: concentration required to double thrombin time, linear extrapolation
In short: (§1)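 In plasma from human donors, spiked with a range of compound levels, an automated coagulometer recorded clot formation after thromboplastin (PT), Actin then calcium (APTT) or 10 NIH units/mL thrombin (TT); doubling concentrations were extrapolated linearly.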

[3] = system: human plasma; assay: Human plasma anticoagulation, activated partial thromboplastin time (APTT); assay type: biochemical; details: concentration required to double APTT, linear extrapolation
In short: as §1

[4] = Index of bioavailability (% Relative Activity) from plasma TT time course, oral vs i.v.; assay type: in vivo; details: p.o. dose per legend (20, 60 or 50 mg/kg)
Procedure: Parke Davis) at 37° C. […] Assays are done in duplicate and averaged. […] Each sample population represented alternating sequential time points.

[5] = target: Human Thrombin (Homo sapiens, UniProt P00734); assay: Inhibition of thrombin amidase activity (Kass), chromogenic substrate; assay type: biochemical; details: mean Kass over a range of concentrations; substrate N-benzoyl-Phe-Val-Arg-p-nitroanilide

Compound | Human Plasma Anticoagulation 2x Clotting time PT [1] | Human Plasma Anticoagulation 2x Clotting time TT [2] [ng/mL] | Human Plasma Anticoagulation 2x Clotting time APTT [3] | % oral/i.v. activity (Rat), screening not completed [4] | Kass Human Thrombin [5]
CCS(=O)(=O)N[C@H](Cc1ccccc1)C(=O)N1[C@H](C(=O)NCc2ccc(C(=N)N)cc2)C[C@@H]2CCCC[C@@H]21 (relative stereo) [Example 45, hydrochloride] | 330 ng/mL | 8 | 200 ng/mL | NC^2 | –
N=C(N)c1ccc(CNC(=O)[C@@H]2C[C@@H]3CCCC[C@@H]3N2C(=O)[C@@H](Cc2ccccc2)NCC(=O)O)cc1 (relative stereo) [Example 47, HOOCCH2 -D-Phe-cis-Ohi-p-NHCH2 C6 H4 C(NH)NH2.HCl] | 270 ng/mL | 12 | 140 ng/mL | NC^2 | 45 × 10^6 (L/mole)
N=C(N)c1ccc(CNC(=O)[C@@H]2C[C@@H]3CCCC[C@@H]3N2C(=O)[C@@H](CC2CCCCC2)NCC(=O)O)cc1 (relative stereo) [Example 49, (S-cis)-N-[[4-(aminoiminomethyl)phenyl]methyl]-1-[N-(carboxymethyl)-D-cyclohexylalanyl-1H-indole-2-carboxamide hydrochloride] | – | 5 | – | NC^2 | –
CCS(=O)(=O)N[C@H](Cc1ccccc1)C(=O)N1CCC[C@H]1C(=O)NCCc1ccc(C(=N)N)cc1 [Example 26, EtSO2 -D-Phe-Pro-p-NHCH2 CH2 -C6 H4 C(=NH)NH2.HCl] | 750 ng/mL | 37 | 870 ng/mL | NC^1 | –
N=C(N)c1ccc(CNC(=O)[C@@H]2CCCN2C(=O)[C@@H](CC2CCCCC2)NCC(=O)O)c(F)c1 [Example 71, N-(carboxymethyl)-D-cyclohexylalanyl-N-[[4-(aminoiminomethyl)-2-fluorophenyl]methyl]-L-prolinamide hydrochloride] | 150 ng/mL | 1 | 89 ng/mL | NC^1 | –
N=C(N)c1cc(F)c(CNC(=O)[C@@H]2CCCN2C(=O)[C@@H](CC2CCCCC2)NCC(=O)O)c(F)c1 [Example 72, N-(carboxymethyl)-D-cyclohexylalanyl-N-[[4-(aminoiminomethyl-2,6-difluorophenyl]methyl]-L-prolinamide hydrochloride] | 160 ng/mL | 1 | 160 ng/mL | NC^1 | –
N=C(N)c1ccc(CNC(=O)[C@@H]2CCCN2C(=O)[C@H](NCC(=O)O)C2CCCCC2)cc1 [Example 86, N-(carboxymethyl)-D-cyclohexylglycyl-N-[[4-(aminoiminomethyl)phenyl]methyl]-L-prolinamide hydrochloride] | 180 ng/mL | 4 | 81 ng/mL | – | 200 × 10^6 (L/mole)
Cl.N=C(N)c1ccc(CNC(=O)CN(CCc2ccccc2)C(=O)CNCC(=O)O)cc1 [Example 89, HOOCCH2 -Gly-N-C6 H5 CH2 CH2 Gly-p-NHCH2 C6 H4 C(NH)NH2.HCl] | 37,000 ng/mL | 570 | 51,000 ng/mL | – | 0.14 × 10^6 (L/mole)
HOOCCH2 -D-Phe-Pro(4-cis-isoamyl)-p-NHCH2 C6 H4 C(NH)NH2.HCl [Example 50] | 420 ng/mL | 35 | 460 ng/mL | – | 40 × 10^6 (L/mole)
